Test results: article PMC2693498 (Retrovirology, 2009)
Values joined by “and” are separate entries in the source; they are usually repeats but may differ in a detail not shown here. Equal values may be shown once. Read-outs that look alike come from different tables or passages of the source.

What was measured:
[1] = system: HIV-1 strain xxLAI; test: microbe, parasite or virus in culture; format: cell-based; details: Human immunodeficiency virus 1, MT2
Protocol: The infected cells were incubated for 5 days at 37°C in 5% CO2. Antiviral activity was measured by determining the HIV-1 cytopathic effect by using the vital dye XTT (2,3-bis(2-methoxy-4-nitro-5-sulphophenyl)-2H-tetrazolium-5-carboxanilide) based colorimetric assay [61].
For the median-effect analysis, the compounds were combined at a 1:1 ratio based on their EC50. Six to eight concentrations of each single drug, two-drug combinations, and three-drug combinations were assayed in at least three independent experiments with quadruplicate wells for each experiment. The triple drug combination of TFV+FTC+EFV was studied by the median-effect analysis only. […] For the MacSynergy analysis, combinations of TFV+FTC, TFV+EFV, and FTC+EFV were tested in a checkerboard fashion in 96-well plates with the starting concentration for each compound fixed at three-fold to four-fold above the EC50 value. For the isobologram analysis, combinations of TFV+FTC, TFV+EFV, and FTC+EFV were tested in a checkerboard fashion with the starting concentration for each compound fixed at three-fold to four-fold above the EC50 value.
The degrees of synergy and antagonism were determined using CalcuSyn software (version 2.0, Biosoft, Cambridge, UK) which is based on median-effect principle by Chou and Talalay [62]. […] The IC50 value is calculated from the y-intercept (-m * log IC50), where m is the slope of the curve. […]
The MacSynergy II program (version 1.0, Ann Arbor, MI) calculates a theoretical additive value for each drug combination based on the values generated by the drugs alone using the Bliss Independence model [42]. […] A synergy volume is calculated by adding all of the positive values for each drug combination. […]
In our cell culture study, the score of synergy/antagonism was calculated from a set of 5 replicate parallel measurements and more than 3 sets of such experiments were conducted to test the reproducibility of the results. […]
Fractional inhibitory concentrations are calculated by dividing the EC50 of drug 1 with a fixed overlay of drug 2 by the EC50 of drug 1 alone (the x-coordinate).

[2] = in vivo; cited from earlier work
[3] = human, in vivo; cited from earlier work
[4] = target: T1, HIV-1 RT (Human immunodeficiency virus type 1 group M subtype B, UniProt P04585); test: HIV-1 RT enzymatic (combination) inhibition assay, steady state, activated calf thymus DNA; format: biochemical
T1 construct: Wild-type HIV-1 RT p66/p51 heterodimers; 6-His (N); made in house

[5] = target: T2, HIV-1 RT and ddNTP-terminated DNA primer/template (Human immunodeficiency virus type 1 group M subtype B, UniProt P04585); test: DEC formation assay (gel shift); format: binding
T2 construct: Wild-type HIV-1 RT p66/p51 heterodimers; 6-His (N); made in house
Text: The dead-end complex (DEC) refers to a salt-stable complex formed by HIV-1 RT/ddNMP-terminated DNA primer-template bound to the next dNTP (or ddNTP) that is resistant to being competed apart with excess template. When DEC forms, HIV-1 RT and the DNA primer-template are "trapped" in a state where the forward reaction (polymerization), backward reaction (terminal ddNMP-excision), or enzyme-DNA dissociation cannot occur. We investigated the DEC formation using TFV-terminated DNA/RT/FTC-TP and FTC-MP-terminated DNA/RT/TFV-DP to test the hypothesis that the incoming NRTI might act as the next nucleotide to the chain-terminated primer and form a DEC, thus stabilizing the pre-existing chain-termination. […] For these studies, formation of DEC was determined by three kinetic constants including the dissociation constant (Kd), the maximum percentage of DNA primer-template forming a tight binding RT-DNA complex (Bmax), and the ratio of Bmax/Kd which reflects the efficiency of DEC formation. Furthermore, two sets of DNA primer/templates ([…] and D26/D50) were used to address whether the observation was sequence-dependent.
DNA primers D19, D25, and D26 were 5'-end labeled with T4 polynucleotide kinase (New England Biolabs, Ipswich, MA) and [γ-^32P]ATP as previously described. […] The annealed primer/templates were analyzed by non-denaturing polyacrylamide gel (4–20% TBE) electrophoresis to ensure that the proper annealing had taken place.
The ability of HIV-1 RT to form a stable complex with NRTI-terminated primer/template in the presence of dNTP, ddNTP or NNRTI was assessed as previously described with modification. Two sets of primer/templates were tested using D19/D36A (D19/D36C) and D25/D50 (D26/D50). Labeled primer/template was chain-terminated by incubating a mixture containing 50 mM Tris-HCl (pH 7.8), 60 mM KCl, 5 mM MgCl2, 5 mM DTT, 300 μg/mL bovine serum albumin, 4.2 (v/v) % glycerol, 5 nM [5'-^32P]-labeled primer/template, 0.5 μM of ddATP or TFV-DP (for D19/D36A or D25/D50) or 0.5 μM of ddCTP or FTC-TP (for D19/D36C or D26/D50), and 200 nM HIV-1 RT for 5 min at 37°C and then placed on ice. […] Free dNTP, ddNTP, or EFV was added into the mixture and the mixture was incubated for 15 min at 25°C. At the end of the incubation, the mixture was placed on ice and mixed with 100 mM KCl and 1 A260 unit/mL (for D19/D36A and D19/D36C) or 5 A260 unit/mL (for D25/D50 and D26/D50) poly(rA).poly(dT)12–18. […] The gel was exposed to a storage phosphor screen and DEC formation was quantified using GE Storm 820 PhosphorImager and ImageQuant TL software (GE Healthcare, Piscataway, NJ).
The DEC formation was analyzed by plotting the fraction of the primer/template detected as a function of dNTP, ddNTP, or EFV concentration. […] Data were fitted by nonlinear regression to simple ligand binding equation: y = (Bmax × [ligand])/(Kd + [ligand]) using SigmaPlot 9.0 (Systat Software, Inc., San Jose, CA), where the ligand is the free dNTP, ddNTP, or EFV concentration, and y corresponds to the % of primer/template in DEC complex. The kinetic constants Kd represents the apparent dissociation constant of a ligand and Bmax is the maximum % of DEC complex formation.

[6] = target: T2, HIV-1 RT and ddNTP-terminated DNA primer/template; set-up: method as in PMID 9153415, PMID 17517852; details: TFV-terminated DNA+RT ref 51,55; read-out: Kd, reported values for DEC of TFV-terminated DNA+RT+dCTP; cited from earlier work
[7] = [α-32P]-dATP incorporation as marker
[8] = [α-32P]-dCTP incorporation as marker
[9] = TFV-terminated DNA 26/50-mer + HIV-1 RT, example experiment of Fig. 5
[10] = TFV-terminated DNA 26/50-mer + HIV-1 RT, example experiment of Fig. 5, read-out: Kd (curve fit of Fig. 5)
[11] = ligand added to TFV-terminated DNA D20/D36 + HIV-1 RT
[12] = ligand added to TFV-terminated DNA D20/D36 + HIV-1 RT, read-out: Kd
[13] = ligand added to TFV-terminated DNA D26/D50 + HIV-1 RT
[14] = ligand added to ddAMP-terminated DNA D20/D36 + HIV-1 RT
[15] = ligand added to ddAMP-terminated DNA D20/D36 + HIV-1 RT, read-out: Kd
[16] = ligand added to ddAMP-terminated DNA D26/D50 + HIV-1 RT
[17] = ligand added to ddCMP-terminated DNA D20/D36 + HIV-1 RT
[18] = ligand added to ddCMP-terminated DNA D27/D50 + HIV-1 RT

O=C1Nc2ccc(Cl)cc2[C@@](C#CC2CC2)(C(F)(F)F)O1 [EFV, efavirenz]
EC50 [1]: 5.6 nM | steady-state plasma EFV concentration [2]: 5 µM

Nc1nc(=O)n([C@@H]2CS[C@H](CO)O2)cc1F [FTC, emtricitabine]
EC50 [1]: 1300 nM

Nc1nc(=O)n([C@@H]2CS[C@H](COP(=O)(O)OP(=O)(O)OP(=O)(O)O)O2)cc1F [FTC-TP, FTC triphosphate]
concentration in patients' peripheral blood mononuclear cells (PBMC) [3]: 5 µM | IC50 [4, 7]: 5000 ± 3200 nM | IC50 [4, 8]: 2400 ± 800 nM | Bmax (curve fit of Fig. 5) [5, 9]: 50.4 ± 1.1% | Kd [5, 10]: 52.6 ± 3.4 µM | fold more efficient DEC formation than dCTP ([5]; TFV-terminated DNA+RT, two sequence contexts: equal to dCTP in one, this fold in the other): 3.9 fold and 4 fold | fold less efficient DEC formation than with dCTP ([5]; ddAMP-terminated DNA+RT): 10 fold | Bmax [5, 11]: 17.7 ± 3.9% | Kd [5, 12]: 250 ± 11 µM | Bmax [5, 13]: 50.0 ± 5.0% | Bmax [5, 14]: 28.1 ± 4.7% | Kd [5, 15]: 171 ± 28 µM | Bmax [5, 16]: 60.2 ± 7.2%

C[C@H](Cn1cnc2c(N)ncnc21)OCP(=O)(O)O [TFV, tenofovir]
EC50 [1]: 13000 nM

C[C@@H](Cn1cnc2c(N)ncnc21)OCP(=O)(O)OP(=O)(O)OP(=O)(O)O [TFV-DP, TFV diphosphate]
concentration in patients' peripheral blood mononuclear cells (PBMC) [3]: 0.5 µM | IC50 [4, 7]: 530 ± 80 nM | IC50 [4, 8]: 820 ± 230 nM | Bmax [5, 17]: 15.3 ± 2.7% | Bmax [5, 18]: 55 ± 2%

Nc1ncnc2c1ncn2[C@H]1C[C@H](O)[C@@H](COP(=O)(O)OP(=O)(O)OP(=O)(O)O)O1 [dATP]
fold more efficient DEC formation than TFV-DP ([5]; ddCMP-terminated DNAs): 24- to 65 fold | Bmax ([5]; ligand added to FTC-MP-terminated DNA D27/D50 + HIV-1 RT, ND = No DEC formation detected at 2 mM): 45 ± 14% | Kd ([5]; ligand added to FTC-MP-terminated DNA D27/D50 + HIV-1 RT, ND = No DEC formation detected at 2 mM, read-out: Kd): 862 ± 229 µM | Bmax [5, 17]: 38.0 ± 4.4% | Bmax [5, 18]: 60 ± 3%

Nc1ccn([C@H]2C[C@H](O)[C@@H](COP(=O)(O)OP(=O)(O)OP(=O)(O)O)O2)c(=O)n1 [dCTP]
Kd [6]: 1000 to 5000 nM | Bmax (curve fit of Fig. 5) [5, 9]: 49.2 ± 2.7% | Kd [5, 10]: 185 ± 28 µM | Bmax [5, 11]: 18.5 ± 6.7% | Kd [5, 12]: 232 ± 12 µM | Bmax [5, 13]: 50.0 ± 5.5% | Bmax [5, 14]: 34.2 ± 4.6% | Kd [5, 15]: 21.5 ± 9.8 µM | Bmax [5, 16]: 55.8 ± 3.4%
